The assay deals with T1, stearoyl-CoA desaturase (SCD1) (Mus musculus, UniProt P13516).
T1 construct: Male ICR outbread mice, on a high-carbohydrate, low fat diet; from tissue; host or cells: liver microsomes of male ICR mice on a high-carbohydrate, low fat diet
T1 sequence (P13516 1-355): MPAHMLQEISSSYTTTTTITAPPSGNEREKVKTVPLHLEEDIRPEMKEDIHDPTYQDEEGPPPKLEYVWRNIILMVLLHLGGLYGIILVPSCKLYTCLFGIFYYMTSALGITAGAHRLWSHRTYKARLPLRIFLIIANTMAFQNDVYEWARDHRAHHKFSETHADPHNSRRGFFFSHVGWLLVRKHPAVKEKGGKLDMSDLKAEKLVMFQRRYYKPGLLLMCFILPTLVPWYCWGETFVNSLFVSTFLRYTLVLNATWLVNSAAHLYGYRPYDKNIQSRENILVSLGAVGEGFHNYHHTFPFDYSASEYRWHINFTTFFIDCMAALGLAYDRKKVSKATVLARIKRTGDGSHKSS
The assay is described as follows: SCD microsomal assay: release of 3H2O from [9,10-3H]stearoyl-CoA in mouse liver microsomes. It is filed as biochemical. The settings on record: 15 min incubation, 25° C. The text has this:
The identification of compounds of the invention as SCD inhibitors was readily accomplished using the SCD enzyme and microsomal assay procedure described in Shanklin J. and Summerville C., Proc. Natl. Acad. Sci. USA (1991), Vol. 88, pp. 2510-2514.
Measuring Stearoyl-CoA Desaturase Inhibition Activity of a Test Compound Using Mouse Liver Microsomes
The identification of compounds of the invention as SCD inhibitors was readily accomplished using the SCD microsomal assay procedure described in Shanklin J. and Summerville C., Proc. Natl. Acad. Sci. USA (1991), Vol. 88, pp. 2510-2514, which is incorporated herein by reference in its entirety.
Preparation of Mouse Liver Microsomes:
Male ICR outbread mice, on a high-carbohydrate, low fat diet, under light halothane (15% in mineral oil) anesthesia are sacrificed by exsanguination during periods of high enzyme activity. Livers are immediately rinsed with cold 0.9% NaCl solution, weighed and minced with scissors. All procedures are performed at 4° C. unless specified otherwise. Livers are homogenized in a solution (1/3 w/v) containing 0.25 M sucrose, 62 mM potassium phosphate buffer (pH 7.0), 0.15 M KCl, 15 mM N-acetylcysteine, 5 mM MgCl2, and 0.1 mM EDTA using 4 strokes of a Potter-Elvehjem tissue homogenizer. The homogenate is centrifuged at 10,400×g for 20 min to eliminate mitochondria and cellular debris. The supernatant is filtered through a 3-layer cheesecloth and centrifuged at 105,000×g for 60 min. The microsomal pellet is gently resuspended in the same homogenization solution with a small glass/teflon homogenizer and stored at −70° C. The absence of mitochondrial contamination is enzymatically assessed. The protein concentration is measured using bovine serum albumin as the standard.
Incubation of Mouse Liver Microsomes with Test Compounds:
Desaturase activity is measured as the release of ^3H2O from [9,10-^3H]stearoyl-CoA. Reactions per assay point conditions are as follows: 2 μL 1.5 mM stearoyl-CoA, 0.25 μL 1 mCi/mL ^3H stearoyl CoA, 10 μL 20 mM NADH, 36.75 μL 0.1 M PK buffer (K2HPO4/NaH2PO4, pH 7.2). The test compound or control solution is added in a 1 μL volume. Reactions are started by adding 50 μL of microsomes (1.25 mg/mL). The plates are mixed and after 15 min incubation on a heating block (25° C.), the reactions are stopped by the addition of 10 μL 60% PCA. An aliquot of 100 μL is then transferred to a filter plate pretreated with charcoal and the plate centrifuged at 4000 rpm for 1 minute. The flow through containing the ^3H2O released by the SCD1 desaturation reaction is added to scintillation fluid and the radioactivity measured in a Packard TopCount. The data is analyzed to identify the IC50 for test compounds and reference compounds. […] The activity was defined in terms of % SCD enzyme activity remaining at the desired concentration of the test compound or as the IC50 concentration. The IC50 (affinity) of the example compounds toward the stearoyl-CoA desaturase is comprised between around 20 μM and 0.0001 μM or between around 5 μM and 0.0001 μM or between around 1 μM and 0.0001 μM.

A word on the IC50: it is the concentration needed to halve the response being measured. A low value points to greater potency in that assay.

Each structure is given as a SMILES string.

`COc1ccc(CCn2ccc(-c3nc(C)c(C(=O)NCc4ccc(F)cc4)s3)n2)cc1` [Example 87, 2-{1-[2-(4-Methoxy-phenyl)-ethyl]-1H-pyrazol-3-yl}-4-methyl-thiazole-5-carboxylic acid 4-fluoro-benzylamide] returned an IC50 of 96 nM.
Molecule `Cc1nc(-c2ccn(CCCc3ccccc3)n2)sc1C(=O)NCc1ccccc1` [Example 37, 4-methyl-2-[1-(3-phenyl-propyl)-1H-pyrazol-3-yl]-thiazole-5-carboxylic acid benzylamide] showed an IC50 of 71 nM.
The molecule `Cc1nc(-c2cncc(N(C)Cc3ccc(F)cc3)n2)sc1C(=O)NCc1ccccc1` [Example 29, 2-{6-[(4-fluoro-benzyl)-methyl-amino]-pyrazin-2-yl}-4-methyl-thiazole-5-carboxylic acid benzylamide] yielded a half-inhibitory concentration (IC50) of 124 nM.
`Cc1nc(-c2cncc(CCc3ccccc3)n2)sc1C(=O)NCc1ccccc1` [Example 4, 4-methyl-2-(6-phenethyl-pyrazin-2-yl)-thiazole-5-carboxylic acid benzylamide] displayed an IC50 of 42 nM.
`Cc1nc(-c2ccn(CCN(C)c3ccccc3)n2)sc1C(=O)NCc1cccnc1` [Example 79, 4-methyl-2-{1-[2-(methyl-phenylamino)-ethyl]-1H-pyrazol-3-yl}-thiazole-5-carboxylic acid (pyridin-3-ylmethyl)amide]: the IC50 stood at 49 nM.
As for `COc1ccc(CN(C)c2cncc(-c3nc(C)c(C(=O)NCc4ccc(F)cc4)s3)n2)cc1` [Example 22, 2-{6-[(4-methoxy-benzyl)-methyl-amino]-pyrazin-2-yl}-4-methyl-thiazole-5-carboxylic acid 4-fluoro-benzylamide], half-maximal inhibition (IC50) was put at 98 nM.
The molecule `Cc1nc(-c2ccn(Cc3ccc(S(C)(=O)=O)cc3)n2)sc1C(=O)NCc1cccnc1` [Example 66, 2-[1-(4-methanesulfonyl-benzyl)-1H-pyrazol-3-yl]-4-methyl-thiazole-5-carboxylic acid (pyridin-3-ylmethyl)amide] returned an IC50 of 172 nM.
Next, `Cc1nc(-c2cncc(N(C)CCCc3ccccc3)n2)sc1C(=O)NCc1ccc(F)cc1` [Example 16, 4-methyl-2-{6-[methyl-(3-phenyl-propyl)-amino]-pyrazin-2-yl}-thiazole-5-carboxylic acid 4-fluoro-benzylamide]: 164 nM; `Cc1nc(-c2ccn(CCC3CC3)n2)sc1C(=O)NCc1ccc(F)cc1` [Example 85, 2-[1-(2-cyclopropyl-ethyl)-1H-pyrazol-3-yl]-4-methyl-thiazole-5-carboxylic acid 4-fluoro-benzylamide]: 147 nM.
Next, `Cc1nc(-c2ccn(Cc3ccc(C#N)cc3)n2)sc1C(=O)NCc1cccnc1` [Example 52, 2-[1-(4-cyano-benzyl)-1H-pyrazol-3-yl]-4-methyl-thiazole-5-carboxylic acid (pyridin-3-ylmethyl)amide]: 74 nM.

Values taken from patent publication US8314138B2, “Pyrazole derivative as SCD1 inhibitors for the treatment of diabetes” (Novartis AG, priority 2006, dated 2012).
